PubChem BioAssay (NCI)
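Interpolation was linear, between the two tested concentrations surrounding the appropriate level; five concentrations were tested over 48 hours in 96-well plates. The concentration for full growth arrest is given as TGI.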

Assays:
Experiment in all cases: inhibition of tumour cell growth, NCI panel, 48 h
SF-295 CNS = tested on: SF-295 CNS
SW-620 colon = tested on: SW-620 colon
NCI-H460 lung = tested on: NCI-H460 lung
A549 NSCLC = tested on: A549 NSCLC
RPMI-8226 leukemia = tested on: RPMI-8226 leukemia
OVCAR-8 ovarian = tested on: OVCAR-8 ovarian
MALME-3M melanoma = tested on: MALME-3M melanoma
CAKI-1 renal = tested on: CAKI-1 renal
COLO 205 colon = tested on: COLO 205 colon
NCI-H23 lung = tested on: NCI-H23 lung
HL-60(TB) leukemia = tested on: HL-60(TB) leukemia
HOP-92 NSCLC = tested on: HOP-92 NSCLC
OVCAR-3 ovarian = tested on: OVCAR-3 ovarian
LOX IMVI melanoma = tested on: LOX IMVI melanoma
MOLT-4 leukemia = tested on: MOLT-4 leukemia
RXF 393 renal = tested on: RXF 393 renal
U251 CNS = tested on: U251 CNS
ACHN renal = tested on: ACHN renal
UO-31 renal = tested on: UO-31 renal
HS 578T breast = tested on: HS 578T breast
IGROV1 ovarian = tested on: IGROV1 ovarian
KM12 colon = tested on: KM12 colon
SF-539 CNS = tested on: SF-539 CNS
HCT-116 colon = tested on: HCT-116 colon
HOP-62 NSCLC = tested on: HOP-62 NSCLC
HT29 colon = tested on: HT29 colon
UACC-257 melanoma = tested on: UACC-257 melanoma
SR leukemia = tested on: SR leukemia
K-562 leukemia = tested on: K-562 leukemia
EKVX NSCLC = tested on: EKVX NSCLC
MDA-N = tested on: MDA-N
PC-3 prostate = tested on: PC-3 prostate
TK-10 renal = tested on: TK-10 renal
CCRF-CEM leukemia = tested on: CCRF-CEM leukemia
OVCAR-5 ovarian = tested on: OVCAR-5 ovarian
NCI-H522 lung = tested on: NCI-H522 lung
786-0 renal = tested on: 786-0 renal
MCF7 breast = tested on: MCF7 breast
SK-MEL-5 melanoma = tested on: SK-MEL-5 melanoma
DU-145 prostate = tested on: DU-145 prostate
OVCAR-4 ovarian = tested on: OVCAR-4 ovarian
NCI/ADR-RES ovarian = tested on: NCI/ADR-RES ovarian
SF-268 CNS = tested on: SF-268 CNS
HCC-2998 colon = tested on: HCC-2998 colon
MDA-MB-231 breast = tested on: MDA-MB-231 breast
NCI-H226 lung = tested on: NCI-H226 lung
MDA-MB-435 = tested on: MDA-MB-435
SN12C renal = tested on: SN12C renal
A498 renal = tested on: A498 renal
HCT-15 colon = tested on: HCT-15 colon
SK-MEL-28 melanoma = tested on: SK-MEL-28 melanoma
BT-549 breast = tested on: BT-549 breast
SNB-19 CNS = tested on: SNB-19 CNS
M14 melanoma = tested on: M14 melanoma
SK-OV-3 ovarian = tested on: SK-OV-3 ovarian
SK-MEL-2 melanoma = tested on: SK-MEL-2 melanoma
SNB-75 CNS = tested on: SNB-75 CNS
T-47D breast = tested on: T-47D breast
UACC-62 melanoma = tested on: UACC-62 melanoma

Measured: TGI

O=C(Nc1nc(C23CC4CC(CC(C4)C2)C3)cs1)c1c(O)c2ccccc2[nH]c1=O
not listed: M14 melanoma | SK-OV-3 ovarian | SK-MEL-2 melanoma | SNB-75 CNS | T-47D breast | UACC-62 melanoma
> 100 µM: all other assays above

N#Cc1n[nH]n(C2CCCCC2)c1=O
not listed: RPMI-8226 leukemia | HOP-92 NSCLC | SR leukemia | K-562 leukemia
> 100 µM: all other assays above
